Source: ChEMBL document CHEMBL1121735, “Synthesis and adrenoceptor affinity of some highly polar beta-substituted catecholamines” (J Med Chem, 1981)

Key:
[1] = molecular target: Adrenergic receptor alpha; test: Binding affinity against Alpha adrenergic receptor using [3H]dihydroergocryptine radioligand in rat brain homogenate; assay type: tissue-based
Adrenergic receptor beta = Adrenergic receptor beta (Rattus norvegicus, UniProt P18090+P10608+P26255); test: Binding affinity against Beta adrenergic receptor using [3H]dihydroalprenolol radioligand in rat brain homogenate; assay type: tissue-based

IC50 [1] [M l-1] | IC50 (Adrenergic receptor beta) [M l-1] | SMILES
0.00001 | 0.00011 | CNCC(c1ccc(O)c(O)c1)S(=O)(=O)O (racemic)
3.6e-6 | 0.00013 | NCC(c1ccc(O)c(O)c1)S(=O)(=O)O (racemic)
0.000033 | 9.1e-6 | CC(C)NCC(c1ccc(O)c(O)c1)S(=O)(=O)O (racemic)
